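These data come from cells grown in 96-well plates and exposed to compound for 48 hours at five concentrations. GI50 is the concentration that inhibits growth by half.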 Activity calls are given as the source filed them. Rule as the data show it: active = GI50 up to about 1.1 µM and inactive = higher.
Columns and labels:
Assay in all cases: DTP human tumour cell line panel, 48 h
TK-10 = system: TK-10
SNB-75 = system: SNB-75
HOP-62 = system: HOP-62
MDA-MB-231 = system: MDA-MB-231
OVCAR-8 = system: OVCAR-8
SK-MEL-5 = system: SK-MEL-5
T47D = system: T47D
MCF7 = system: MCF7
RPMI-8226 = system: RPMI-8226
SF-295 = system: SF-295
CCRF-CEM = system: CCRF-CEM
MDA-MB-435 = system: MDA-MB-435
EKVX = system: EKVX
SK-OV-3 = system: SK-OV-3
SK-MEL-28 = system: SK-MEL-28
CAKI-1 = system: CAKI-1
SF-539 = system: SF-539
HT-29 = system: HT-29
NCI-H522 = system: NCI-H522
ACHN = system: ACHN
BT-549 = system: BT-549
SK-MEL-2 = system: SK-MEL-2
DU-145 = system: DU-145
SR = system: SR
KM12 = system: KM12
NCI-H460 = system: NCI-H460
HCT-116 = system: HCT-116
SW-620 = system: SW-620
SN12C = system: SN12C
UACC-62 = system: UACC-62
NCI/ADR-RES = system: NCI/ADR-RES
NCI-H226 = system: NCI-H226
HL-60 = system: HL-60
LOX IMVI = system: LOX IMVI
IGROV-1 = system: IGROV-1
OVCAR-4 = system: OVCAR-4
PC-3 = system: PC-3
A549 = system: A549
HOP-92 = system: HOP-92
HCT-15 = system: HCT-15
NCI-H23 = system: NCI-H23
UACC-257 = system: UACC-257
UO-31 = system: UO-31
HCC 2998 = system: HCC 2998
OVCAR-5 = system: OVCAR-5
MOLT-4 = system: MOLT-4
RXF 393 = system: RXF 393
Hs-578T = system: Hs-578T
786-0 = system: 786-0
COLO 205 = system: COLO 205
M14 = system: M14
Malme-3M = system: Malme-3M
K562 = system: K562
SF-268 = system: SF-268
SNB-19 = system: SNB-19
MDA-N = system: MDA-N
OVCAR-3 = system: OVCAR-3
U-251 = system: U-251
A498 = system: A498

CCN(CCCl)c1cc(CN(C)C)cc(NC(=O)c2ccc(C(=O)Nc3cc(CN(C)C)cc(N(CC)CCCl)c3)cc2)c1
GI50 (TK-10): 861 nM (active)
GI50 (SNB-75): 114 nM (active)
GI50 (HOP-62): 133 nM (active)
GI50 (MDA-MB-231): 323 nM (active)
GI50 (OVCAR-8): 224 nM (active)
GI50 (SK-MEL-5): 158 nM (active)
GI50 (T47D): 134 nM (active)
GI50 (MCF7): 17 nM (active)
GI50 (RPMI-8226): 88.5 nM (active)
GI50 (SF-295): 182 nM (active)
GI50 (CCRF-CEM): 15.6 nM (active)
GI50 (MDA-MB-435): 162 nM (active)
GI50 (EKVX): 1310 nM (inactive)
GI50 (SK-OV-3): 226 nM (active)
GI50 (SK-MEL-28): 159 nM (active)
GI50 (CAKI-1): 272 nM (active)
GI50 (SF-539): 76.2 nM (active)
GI50 (HT-29): 95.1 nM (active)
GI50 (NCI-H522): 23.1 nM (active)
GI50 (ACHN): 162 nM (active)
GI50 (BT-549): 226 nM (active)
GI50 (SK-MEL-2): 120 nM (active)
GI50 (DU-145): 504 nM (active)
GI50 (SR): 22.8 nM (active)
GI50 (KM12): 234 nM (active)
GI50 (NCI-H460): < 21.1 nM (active)
GI50 (HCT-116): 96.2 nM (active)
GI50 (SW-620): 149 nM (active)
GI50 (SN12C): 50.2 nM (active)
GI50 (UACC-62): 73.6 nM (active)
GI50 (NCI/ADR-RES): 42000 nM (inactive)
GI50 (NCI-H226): 69.7 nM (active)
GI50 (HL-60): < 10 nM (active)
GI50 (LOX IMVI): 82.6 nM (active)
GI50 (IGROV-1): 135 nM (active)
GI50 (OVCAR-4): 500 nM (active)
GI50 (PC-3): 190 nM (active)
GI50 (A549): 95.5 nM (active)
GI50 (HOP-92): 184 nM (active)
GI50 (HCT-15): 5690 nM
GI50 (NCI-H23): 66.5 nM (active)
GI50 (UACC-257): 356 nM (active)
GI50 (UO-31): 5210 nM (inactive)
GI50 (HCC 2998): 76.2 nM (active)
GI50 (OVCAR-5): 240 nM (active)
GI50 (MOLT-4): 18.3 nM (active)
GI50 (RXF 393): 27.8 nM (active)
GI50 (Hs-578T): 103 nM (active)
GI50 (786-0): 69 nM (active)
GI50 (COLO 205): 147 nM (active)
GI50 (M14): 291 nM (active)
GI50 (Malme-3M): 292 nM (active)
GI50 (K562): 73.3 nM (active)
GI50 (SF-268): 50.2 nM (active)
GI50 (SNB-19): 87.3 nM (active)
GI50 (MDA-N): 154 nM (active)
GI50 (OVCAR-3): 384 nM (active)
GI50 (U-251): 72.3 nM (active)

COc1ccc(C(=O)/C=C/c2ccc(OCC#N)cc2)cc1OC
GI50 (TK-10): 26900 nM (inactive)
GI50 (SNB-75): 3720 nM (inactive)
GI50 (HOP-62): 15500 nM (inactive)
GI50 (MDA-MB-231): 13800 nM (inactive)
GI50 (OVCAR-8): 28000 nM (inactive)
GI50 (SK-MEL-5): 18300 nM (inactive)
GI50 (T47D): 5790 nM (inactive)
GI50 (MCF7): 3150 nM (inactive)
GI50 (SF-295): > 10000 nM (inactive)
GI50 (CCRF-CEM): 3210 nM (inactive)
GI50 (MDA-MB-435): 17500 nM (inactive)
GI50 (EKVX): 14900 nM (inactive)
GI50 (SK-OV-3): 26500 nM (inactive)
GI50 (SK-MEL-28): 14600 nM (inactive)
GI50 (CAKI-1): 17400 nM (inactive)
GI50 (A498): > 10000 nM (inactive)
GI50 (SF-539): 17900 nM (inactive)
GI50 (HT-29): 22300 nM (inactive)
GI50 (NCI-H522): 16800 nM (inactive)
GI50 (ACHN): 30100 nM (inactive)
GI50 (BT-549): 15500 nM (inactive)
GI50 (DU-145): 11600 nM (inactive)
GI50 (SR): 11800 nM (inactive)
GI50 (KM12): 5330 nM (inactive)
GI50 (NCI-H460): 27700 nM (inactive)
GI50 (HCT-116): 5090 nM (inactive)
GI50 (SW-620): 7160 nM (inactive)
GI50 (SN12C): 16400 nM (inactive)
GI50 (UACC-62): 16700 nM (inactive)
GI50 (NCI/ADR-RES): 18500 nM (inactive)
GI50 (NCI-H226): 19500 nM (inactive)
GI50 (IGROV-1): 30500 nM (inactive)
GI50 (OVCAR-4): 40700 nM (inactive)
GI50 (PC-3): > 10000 nM (inactive)
GI50 (A549): 29100 nM (inactive)
GI50 (HOP-92): 22600 nM (inactive)
GI50 (HCT-15): 20000 nM
GI50 (NCI-H23): 21900 nM (inactive)
GI50 (UACC-257): > 10000 nM (inactive)
GI50 (UO-31): 18000 nM (inactive)
GI50 (HCC 2998): 18200 nM (inactive)
GI50 (OVCAR-5): > 10000 nM (inactive)
GI50 (MOLT-4): 10300 nM (inactive)
GI50 (RXF 393): 13200 nM (inactive)
GI50 (Hs-578T): 27400 nM (inactive)
GI50 (786-0): 19900 nM (inactive)
GI50 (COLO 205): 11900 nM (inactive)
GI50 (M14): 16400 nM (inactive)
GI50 (Malme-3M): 20900 nM (inactive)
GI50 (K562): 5520 nM (inactive)
GI50 (SF-268): 26600 nM (inactive)
GI50 (SNB-19): 15100 nM (inactive)
GI50 (MDA-N): > 10000 nM (inactive)
GI50 (OVCAR-3): 21200 nM (inactive)
GI50 (U-251): 14300 nM (inactive)

O=C1CC(c2cccc(Cl)c2)Nc2ccc(N3CCCC3)cc21 (centres undefined)
GI50 (TK-10): 942 nM (active)
GI50 (HOP-62): 419 nM (active)
GI50 (MDA-MB-231): 366 nM (active)
GI50 (OVCAR-8): 52.2 nM (active)
GI50 (SK-MEL-5): 30.5 nM (active)
GI50 (T47D): > 100000 nM (inactive)
GI50 (MCF7): 555 nM (active)
GI50 (RPMI-8226): 80.2 nM (active)
GI50 (SF-295): 43.9 nM (active)
GI50 (CCRF-CEM): 30.2 nM (active)
GI50 (MDA-MB-435): 4.84 nM (active)
GI50 (EKVX): 65.8 nM (active)
GI50 (SK-OV-3): 193 nM (active)
GI50 (SK-MEL-28): 189 nM (active)
GI50 (CAKI-1): 60.8 nM (active)
GI50 (A498): 10 nM (active)
GI50 (SF-539): 26.3 nM (active)
GI50 (HT-29): 79.1 nM (active)
GI50 (NCI-H522): 19.1 nM (active)
GI50 (ACHN): 52.4 nM (active)
GI50 (BT-549): 1290 nM (inactive)
GI50 (SK-MEL-2): 54.6 nM (active)
GI50 (DU-145): 39.1 nM (active)
GI50 (SR): 30.4 nM (active)
GI50 (KM12): 361 nM (active)
GI50 (NCI-H460): 50.6 nM (active)
GI50 (HCT-116): 38.5 nM (active)
GI50 (SW-620): 26.6 nM (active)
GI50 (SN12C): 55.2 nM (active)
GI50 (UACC-62): 53.7 nM (active)
GI50 (NCI/ADR-RES): 27.4 nM (active)
GI50 (NCI-H226): 72.1 nM (active)
GI50 (LOX IMVI): 51.8 nM (active)
GI50 (IGROV-1): 130 nM (active)
GI50 (OVCAR-4): 6890 nM (inactive)
GI50 (PC-3): 34.3 nM (active)
GI50 (A549): 49.4 nM (active)
GI50 (HOP-92): 373 nM (active)
GI50 (HCT-15): 203 nM
GI50 (NCI-H23): 278 nM (active)
GI50 (UACC-257): 68.7 nM (active)
GI50 (UO-31): 60.3 nM (active)
GI50 (HCC 2998): 335 nM (active)
GI50 (OVCAR-5): 526 nM (active)
GI50 (MOLT-4): 80.2 nM (active)
GI50 (RXF 393): 22.4 nM (active)
GI50 (Hs-578T): 10 nM (active)
GI50 (786-0): 57.7 nM (active)
GI50 (COLO 205): 194 nM (active)
GI50 (M14): 28 nM (active)
GI50 (K562): 86.3 nM (active)
GI50 (SF-268): 115 nM (active)
GI50 (SNB-19): 33.2 nM (active)
GI50 (MDA-N): 3.59 nM (active)
GI50 (OVCAR-3): 158 nM (active)
GI50 (U-251): 31.4 nM (active)

Source: ChEMBL document CHEMBL1201862, “PubChem BioAssay data set” (2004)
